Test results reported in paper PMC12491701, “Discovery of an APP-selective BACE1 inhibitor for Alzheimer's disease” (Neurotherapeutics, 2025).
Converted amounts (≈) assume the structure as drawn. “And” between values parts separate entries of the source, which are not always exact repeats. Equal entries are not always repeated.

How the values were obtained:
[1] = system: CHO-7W cells expressing wildtype human APP; assay: sAPPβ and Aβ1-42 production in CHO-7W cells (AlphaLISA); assay type: cell-based, Chinese hamster; conditions: 1 μM, in words
Experimental: Culture Media was collected and frozen. Media was assayed using an AlphaLISA for Aβ1-42 (Perkin Elmer catalog # AL276C), sAPPα (R&D Systems catalog # AF1168 conjugated with Perkin Elmer acceptor beads catalog # 6772001 + 2B3 antibody from IBL catalog # 11088 biotinylated), and sAPPβ (Perkin Elmer AL276-acceptor + IBL catalog # 18957 biotinylated). For the assay, 2 μL of diluted or undiluted sample was added to a 384 well plate, followed by 2 μL of the respective antibody mixture. This was incubated for 1 h. Afterwards, 2 μL of donor beads was added to each well, followed by a 30-min incubation in the dark, after which the signal was read.

[2] = biological target: BACE1 (Homo sapiens, UniProt P56817); assay: P5-P5′ BACE1 inhibition assay; assay type: biochemical; conditions: for IC50: cell-free, read-out: BACE1 IC50 (P5-P5′ assay; BACE1-APP)
Chain of BACE1 (P56817 46-501): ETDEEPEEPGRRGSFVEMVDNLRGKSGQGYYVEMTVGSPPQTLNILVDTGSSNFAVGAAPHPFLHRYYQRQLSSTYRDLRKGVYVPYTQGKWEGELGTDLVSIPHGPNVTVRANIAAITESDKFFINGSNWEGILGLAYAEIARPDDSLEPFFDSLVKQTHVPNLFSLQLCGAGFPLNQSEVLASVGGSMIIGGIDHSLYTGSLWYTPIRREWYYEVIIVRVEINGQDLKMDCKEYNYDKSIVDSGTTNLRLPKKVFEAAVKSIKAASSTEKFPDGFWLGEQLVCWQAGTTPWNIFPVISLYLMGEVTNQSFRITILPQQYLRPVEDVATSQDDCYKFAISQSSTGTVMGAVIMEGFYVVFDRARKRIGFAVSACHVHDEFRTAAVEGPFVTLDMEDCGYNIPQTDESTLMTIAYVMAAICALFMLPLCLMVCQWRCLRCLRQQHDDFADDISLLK

[3] = biological target: T1, BACE1 cleavage of PSGL1 (Homo sapiens, UniProt P56817); assay: PSGL1 assay (SEAP-PSGL1); assay type: cell-based; conditions: SEAP-PSGL1, HEK293
T1 construct: with or without full-length wild-type BACE1; expressed in transfected cells; host or cells: HEK293
T1 sequence (P56817 46-501): as above

[4] = biological target: T2, BACE1 cleavage of NRG1 (Homo sapiens, UniProt P56817); assay: SEAP-NRG assay; assay type: cell-based; conditions: SEAP-NRG1, HEK293
T2 construct: with or without full-length wild-type BACE1; expressed in transfected cells; host or cells: HEK293
T2 sequence (P56817 46-501): as above

[5] = biological target: T3, cathepsin D (CatD) (Homo sapiens, UniProt P07339); assay: Cathepsin D activity assay; assay type: biochemical; conditions: in words
T3 construct: purchased R&D Systems 1014-AS
T3 sequence (P07339 65-412): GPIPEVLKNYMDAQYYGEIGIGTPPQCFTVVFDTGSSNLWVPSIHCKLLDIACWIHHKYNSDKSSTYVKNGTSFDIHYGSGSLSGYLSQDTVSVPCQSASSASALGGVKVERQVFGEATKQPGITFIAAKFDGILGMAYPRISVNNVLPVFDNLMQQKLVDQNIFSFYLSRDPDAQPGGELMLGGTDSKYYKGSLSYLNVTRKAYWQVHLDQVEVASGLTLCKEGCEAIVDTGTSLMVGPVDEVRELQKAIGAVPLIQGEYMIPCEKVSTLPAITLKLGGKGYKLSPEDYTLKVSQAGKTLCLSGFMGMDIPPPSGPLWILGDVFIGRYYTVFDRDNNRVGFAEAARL
Experimental: The effects of candidate ASBIs on cathepsin D (CatD) activity was assessed using the R&D Systems CatD activity assay kit (Catalog #: 1014-AS and ES001) according to the manufacturer's instructions. For the assay, 4 μL of assay buffer was added to each well, followed by 2 μL of CatD diluted in assay buffer to 5 ng/uL. Then, 2 μL of inhibitor, at concentrations along an 11 pt. two-fold dilution series starting at 50 μM, were added to appropriated wells and incubated for 30 min at room temperature. For all dilutions of inhibitor, drug stock solutions of 10 mM in DMSO were diluted to 50 μM in water; subsequent dilutions were in 2.5 % DMSO. Afterwards, 2 μL of fluorogenic CatD substrate, diluted to 50 μM in assay buffer, were added to each well, after which the signal generated was read every 30 min at 25 °C for 1hr.

[6] = biological target: eAPP (Homo sapiens, UniProt P05067); assay: APP binding by surface plasmon resonance (SPR)
Chain of eAPP (P05067 18-701): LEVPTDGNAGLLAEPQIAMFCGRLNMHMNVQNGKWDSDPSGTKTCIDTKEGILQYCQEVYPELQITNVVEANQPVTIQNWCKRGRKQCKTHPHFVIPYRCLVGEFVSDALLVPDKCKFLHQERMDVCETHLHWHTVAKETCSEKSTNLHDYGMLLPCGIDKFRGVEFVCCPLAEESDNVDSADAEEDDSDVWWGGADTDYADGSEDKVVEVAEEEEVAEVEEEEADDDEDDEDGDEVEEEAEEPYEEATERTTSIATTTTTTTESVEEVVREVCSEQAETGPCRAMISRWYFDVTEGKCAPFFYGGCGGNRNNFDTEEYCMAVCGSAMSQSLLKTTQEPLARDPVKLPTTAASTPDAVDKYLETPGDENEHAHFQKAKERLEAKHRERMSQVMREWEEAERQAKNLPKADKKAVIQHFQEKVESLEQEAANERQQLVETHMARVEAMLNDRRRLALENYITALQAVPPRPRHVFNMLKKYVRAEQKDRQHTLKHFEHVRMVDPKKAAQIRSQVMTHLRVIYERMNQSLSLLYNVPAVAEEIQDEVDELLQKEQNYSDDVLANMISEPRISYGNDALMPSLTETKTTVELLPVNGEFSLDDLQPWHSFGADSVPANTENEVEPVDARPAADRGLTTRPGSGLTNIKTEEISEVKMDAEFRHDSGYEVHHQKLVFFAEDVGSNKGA

[7] = Plasma stability assay; assay type: in vitro ADME; conditions: human plasma, 37 °C, 180 min
Experimental: The effects of candidate ASBIs on BACE2 activity was assessed using the R&D Systems BACE2 activity assay kit (Catalog #: 4097-AS and ES010) formatted from to the manufacturers. For the assay, 4 μL of assay buffer was added to each well, followed by 2 μL of BACE2 diluted in assay buffer to 10 ng/µL.
Then, 2 μL of inhibitor, at the appropriate concentrations were added to the wells and incubated for 30 minutes at room temperature. For all dilutions of inhibitor, drug stock solutions of 10 mM in DMSO were diluted to 50 μM in water; subsequent dilutions were in 0.5% DMSO. Afterwards, 2 μL of fluorogenic BACE2 substrate, diluted to 50 μM in assay buffer, were added to each well, after which the signal generated was read every 30 minutes at 25 °C for 2 hr (Fig S2).
(§1) FAH65 and its enantiomers at 10 mM in 100% DMSO was diluted in PBS pH 7.4 to 100, 10, 1, and 0.1 µM; plus, a vehicle-only control. The solutions were incubated at 37 °C for 90 min and centrifuged at 16K x g for 5 min. An aliquot of each supernatant was analyzed by LC-MS/MS. […]
Kinetic solubility (µM) was calculated using the trendline equation with maximum chromatographic peak area observed in the aqueous sample. […]
([…]® CAN, Chiral Technologies, Cat#H15L-109, 5 µm 50 x 4 mm). […] The retention time of the compound (tr) and injection peak were recorded.
The percent protein binding (P) was calculated using the following equations: […]

[8] = Kinetic solubility assay; assay type: physicochemical; conditions: PBS pH 7.4, 37 °C
Experimental: as §1, with “LC-MS/MS. A standard curve was generated by plotting the known amount of analyte per standard in DMSO vs. chromatographic peak” for “LC-MS/MS.”
Kinetic solubility (µM) was calculated using the trendline equation with maximum chromatographic peak area observed in the aqueous sample. (Table S3)
(§2) Liver microsome stability assay
(§3) A 1 µL sample of 1 mM FAH65 and its enantiomers in 100% DMSO was added to 1 mL of 0.5 mg/mL human liver microsomes (Thermo Fisher Scientific, Cat# HMMPL) in PBS pH 7.4, 2 mM NADPH, and 2 mM MgCl2; and incubated at 37 °C for 120 min. Aliquots (50 µL) of the microsome solution were taken […]
quenching solution containing an internal standard. Solutions were clarified by centrifugation (16K x g, 5 min) and supernatants transferred to new tubes and lyophilized. Samples were reconstituted in 100 µL of 50/50/0.1 water/acetonitrile/formic acid prior to analysis via LC-MS/MS. […]
(§4) One µL FAH65 and its enantiomers (1 mM in 100% DMSO) was added to human peripheral blood plasma (Cat#70039, Stemcell Technologies Inc) diluted 2-fold in PBS (1000 µL, pH 7.4) and incubated […]

[9] = Brain tissue binding assay; assay type: in vitro ADME, mouse; conditions: brain homogenate, 2 µM compound
Experimental: The […]
(§5) KIAM = (tr – t0) / t0; Pm = (KIAM / MW4) x 1010
(§6) Compounds with a Pm >0.85 are predicted to be BBB permeable (CNS+) at pH 7.4.
Brain Tissue Binding Assay
Brain tissue was homogenized in PBS (pH 7.4) (1: 3 weight(mg)/volume(µL)) and the protein concentration determined using the Micro BCA™ Pr otein Assay Kit (Thermo Fisher Scientific, Cat#23235). Brain homogenate was diluted to 20 mg/mL in PBS (pH 7.4) and added to Slide-A-Lyzer™ MINI Dialysis Devices, 10K MWCO dialysis cups (Thermo Fisher Scientific, Cat#PI88401) in a 48-well plate containing PBS (500 µL; pH 7.4). 1 µL of 1 mM compound was added to the brain homogenate (final concentration: 2 µM compound, 0.5% DMSO) and incubated on a rocker for 4.5 hours at 37 °C. 50 µL of brain homogenate (within the dialysis cup) and PBS (within the 48-well plate) were transferred to new microcentrifuge tubes containing 200 µL of quenching reagent (100% acetonitrile) containing internal standard. Solutions were clarified by centrifugation (16,000 x g, 5 min) and the supernatants were transferred to new tubes and lyophilized. Samples were reconstituted in 100 µL of 50/50/0.1 (Water/Acetonitrile/Formic Acid) prior to analysis via LC-MS/MS.
The % of the unbound drug was calculated using the following equation: fubound = [normalized peak area in buffer side / normalized peak area in brain side] x 100

[10] = biological target: T4, human serum albumin (HSA) (Homo sapiens, UniProt P02768); assay: Human serum albumin (HSA) binding assay; assay type: in vitro ADME
T4 construct: purchased Chiral Technologies H15L-109
T4 sequence (P02768 25-609): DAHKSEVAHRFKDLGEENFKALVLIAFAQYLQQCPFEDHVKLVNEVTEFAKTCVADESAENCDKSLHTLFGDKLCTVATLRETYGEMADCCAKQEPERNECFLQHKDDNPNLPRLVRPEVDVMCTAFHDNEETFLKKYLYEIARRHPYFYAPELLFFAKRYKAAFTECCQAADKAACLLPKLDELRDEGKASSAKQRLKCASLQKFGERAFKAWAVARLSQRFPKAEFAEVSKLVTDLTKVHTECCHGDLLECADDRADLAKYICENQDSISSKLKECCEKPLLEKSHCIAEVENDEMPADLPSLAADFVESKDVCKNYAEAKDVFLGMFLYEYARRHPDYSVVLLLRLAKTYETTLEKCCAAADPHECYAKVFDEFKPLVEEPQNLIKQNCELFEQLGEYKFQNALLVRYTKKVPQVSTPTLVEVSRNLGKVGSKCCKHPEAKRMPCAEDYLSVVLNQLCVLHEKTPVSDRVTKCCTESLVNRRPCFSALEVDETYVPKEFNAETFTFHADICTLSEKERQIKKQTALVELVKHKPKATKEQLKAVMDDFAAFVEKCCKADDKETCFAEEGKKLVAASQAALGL
Experimental: Human serum albumin (HSA) binding assay
The liquid chromatography-ultraviolet/visible spectroscopy (LC-UV/Vis) assay was performed on a 1290 Infinity HPLC system (Agilent Technologies) with an HPLC column containing immobilized HSA
([…]® CAN, Chiral Technologies, Cat#H15L-109, 5 µm 50 x 4 mm). The HPLC method utilized an isocratic gradient containing 100% 6.7 mM phosphate buffer saline (pH 7.4). The retention time of the compound (tr) and injection peak were recorded.
The percent protein binding (P) was calculated using the following equations:
K’ = (tr – tm) / tm; P = 100 x [K’ / (K’ + 1)] […]
The […]
as §5, §6
Brain Tissue Binding Assay […]
Cat#23235). Brain homogenate was diluted to 20 mg/mL in PBS (pH 7.4) and added to Slide-A-Lyzer™ MINI Dialysis Devices, 10K MWCO dialysis cups (Thermo Fisher Scientific, Cat#PI88401) in a 48-well plate containing PBS (500 µL; pH 7.4). 1 µL of 1 mM compound was added to the brain homogenate (final concentration: 2 µM compound, 0.5% DMSO) and incubated on a rocker for 4.5 hours at 37 °C. 50 µL of brain homogenate (within the dialysis cup) and PBS (within the 48-well plate) were transferred to new microcentrifuge tubes containing 200 µL of quenching reagent (100% acetonitrile) containing internal […]
standard. […]

[11] = Liver microsome stability assay; assay type: in vitro ADME; conditions: human liver microsomes
Experimental: as §2, §3
quenching solution containing an internal standard. Solutions were clarified by centrifugation (16K x g, 5 min) and supernatants transferred to new tubes and lyophilized. Samples were reconstituted in 100 µL of 50/50/0.1 water/acetonitrile/formic acid prior to analysis via LC-MS/MS.
Normalized chromatographic peak areas were plotted at each time point and the half-life (t1/2) of compound in liver microsomes was determined by using the trendline equation to calculate the time at which compound abundance was 50% of that at timepoint 0 (T0).
as §4
and 180 min, and added to a 200 µL 100% acetonitrile reaction quenching solution containing an internal standard. Solutions were clarified by centrifugation (16K x g, 5 min) and supernatants were transferred to new tubes and lyophilized. […]

[12] = biological target: BACE1 cleavage of MBP-APPC125 substrate (Homo sapiens, UniProt P56817); assay: MBP-APPC125 BACE1 cleavage assay; assay type: biochemical; conditions: in words
Chain of BACE1 cleavage of MBP-APPC125 substrate (P56817 46-501): as the sequence (P56817 46-501) above
Experimental: (-)/peak 2 enantiomers. […] Specifically, 2 μL of the Acc-Mix was loaded into each well and incubated for 1-hour at RT, then 2 μL of Donor-Mix was added and incubated for 30 min at room RT protected from light. The signal was quantified using an Envision Plate reader (Fig S6). Testing of FA[…](-) in HEK-APP-GFP cells HEK293T cells stably transfected with human APP (P05067-1, […]) tagged with Green Fluorescent Protein (GFP) on the N-terminal (HEK-APP; AcroBiosystems cat# CHEK-ATP081) were cultured according to manufacturer recommendations. […] Cells were then washed with PBS and imaged at 37 °C and 5% CO2 using a BioTek Lionheart FX microscope using brightfield and green fluorescence filters with a 20X objective. Images were then processed with Gen5 software to obtain the total intensity of the GFP channel (469/525) and the mean GFP channel intensity.(Fig S7, S8) Supplementary Figures Figure S1. BACE inhibition dose-response and pharmacokinetics for FAH1 and FAH3. (a) IC50 curves for FAH1, 3, 17 and 65 in the P5-P5' assay described in main manuscript. […] μM, respectively. […] 150 FAH-65 BA C E-IV 100 50 0 50 10 0. 1 [ ] µM Figure S2. FAH65 in the BACE2 assay. […] 6 (1 picture or pasted object on this page, not shown here)

Row | IC50 [2] | EC50 [3] | EC50 [4] | inhibition of cathepsin D activity [5] | Kd [6] | Plasma stability t1/2 [7] | solubility kinetic at 90 min [8] | Activity in the P5-P5′ assay ([2]; in words) | Brain tissue binding, funbound [9] | Plasma (HSA) binding, funbound [10] | Microsomal stability T1/2 [11] | inhibition of BACE1 cleavage of MBP-APPC125 [12] | SMILES | sAPPβ production ([1]; 24-h treatment) | Aβ1-42 production [1]
1 | ~0.3 µM and 0.3 µM | > 10 µM | > 10 µM | Neither analog significantly inhibited | ~3.3 µM |  |  |  |  |  |  |  | Cc1cc(C2(c3cccc(F)c3)N=C(N)N(C)C2=O)ccc1OC(F)F (stereo not drawn) [FAH17] | decrease | decrease
2 |  |  |  |  |  | > 3 h | 87 µM (≈ 36.8 µg/mL) | inactive | 6.2% | 0.8% | 0.4 h |  | Cc1cc(C2(c3cccc(-c4cncnc4)c3)N=C(N)N(C)C2=O)ccc1OC(F)F (stereo not drawn) [FAH65E(+)] |  | 
3 | > 200 µM |  |  |  |  |  |  |  |  |  |  | weak inhibitor | O=C1NC(=O)C(c2ccccc2)(c2ccccc2)N1 [phenytoin, reference compound] |  | 
